Reference: US20130252983A1, “ACTIVATING PHOSPHORYLATION SITE ON GLUTAMINASE C” (CORNELL UNIVERSITY, priority 2010, published 2013)

Key:
[1] = test system: SKBR3 cells; experiment: Growth to high density and in low serum, SKBR3; type: cell-based, human; conditions: 10 μM
Description: (§1) FIGS. 2A-G illustrate effects of 968 on the transforming activity of constitutively active Rho GTPases and human breast cancer cells. […] Cells were scored after 14 days and plotted as the percentage of the total number of colonies greater than 50 μm in diameter. Data represent the average of 3 experiments (±s.d.). […] Data represent the average of 3 experiments (±s.d.). […] Data represent the average of 3 experiments (±s.d.). […] After 24 hours at 37° C., the migratory cells were fixed, stained with GIEMSA, and counted. Data represent the average of 3 experiments (±s.d.). […] Data represent the average of 3 experiments (±s.d.). […] Data represent the average of 3 experiments (±s.d.). […] Data represent the average of 3 experiments (±s.d.).
100%=620 moles of glutamine hydrolyzed per minute per mole of enzyme. Data represent the average of 3 experiments (±s.d.). […] Following precipitation of the beads and re-suspension, the samples were analyzed by Western blotting with anti-V5 antibody. […] Data represent the average of 3 experiments (±s.d.). […] Data represent the average of 3 experiments (±s.d.). […] Data represent the average of 3 experiments (±s.d.). FIG. 3E NIH 3T3 cells transiently expressing Dbl were assayed for focus formation in the presence of 10 μM 968 alone or together with 7 mM dimethyl α-ketoglutarate. […] 100%=680 nM glutamine hydrolyzed per minute per 10^5 cells. […]

[2] = test system: NIH 3T3 cells expressing oncogenic Dbl; experiment: Dbl-induced cellular transformation (focus formation, growth in low serum, soft agar); type: cell-based, mouse
Description: FIGS. 1A-E illustrate that the small molecule 968 inhibits cellular transformation. […] Cells were fixed and stained with crystal violet for counting of foci. Right: 968 was serially diluted (10, 5, 2.5, and 1.25 μM) and evaluated for its ability to inhibit focus formation. […] After 6 days, the cells were counted. 100% represents the number of Dbl-transformed cells counted in the absence of 968 (27.5×10^4 cells). Data represent the average of 3 experiments (±s.d.). […] At the indicated times, the cells were counted. Data represent the average of 3 experiments (±s.d.).
as §1
FIGS. 5A-C illustrate comparative abilities of 968 and other benzo[a]phenanthridinones to inhibit the transforming activity of oncogenic Dbl and H-Ras. […] Histograms show the relative levels of Dbl-induced focus formation for the different treatments, compared to Dbl-induced focus formation measured in the presence of DMSO (i.e. solvent control). Data represent the average of 3 experiments (mean±s.d.). […] Histograms show the relative levels of Ras(G12V)-induced focus formation measured for the different treatments, compared to Ras(G12V)-induced focus formation measured in the presence of DMSO (solvent control). Data represent the average of 3 experiments (mean±s.d.). FIG. 5C NIH 3T3 cells stably expressing H-Ras(G12V) that were cultured in DMEM supplemented with 1% calf serum, with the indicated amounts of 968. After 6 days, cells are trypsinized and counted. 100% represents the number of cells counted in the absence of 968, i.e. 26×10^4 cells. Data represent the average of 3 experiments (mean±s.d.).

CN(C)c1ccc(C2Nc3ccc4ccccc4c3C3=C2C(=O)CC(C)(C)C3)cc1Br (centres unmarked) [Compound 968, 5-[3-bromo-4-(dimethylamino)phenyl]-2,2-dimethyl-2,3,5,6-tetrahydrobenzo[a]]
growth in low serum ([1]; 1% fetal bovine serum): inhibits their growth | growth to high density ([1]; 10% fetal bovine serum, 6 days): inhibits their growth | Dbl-induced colony formation in soft agar ([2]; 10 μM): blocked | potency against Dbl-induced transformation compared to oncogenic H-Ras ([2]; focus formation in NIH 3T3 cells or growth in low serum): more potent inhibitor of Dbl-induced transformation | concentration at which active in blocking Dbl-induced transformation ([2]; focus-forming assays or growth in low serum): 1 to 10 µM
